In patent publication US20060166867A1, “Novel conjugates of polysaccharides and uses thereof” (priority 2003, published 2006):
Where “and” joins values, the source holds several entries; their conditions need not be identical. Identical values can stand only once. Like-named read-outs stand apart in the source and are kept apart here.

Experiments:
[1] = tested on: K. pneumoniae-ESBL positive; details: Gram negative clinical isolate
[2] = tested on: P. aeruginosa R17093; experiment: MIC, broth microdilution; format: cell-based, Pseudomonas aeruginosa; details: Gram negative clinical isolate; for MIC: read-out: Minimum Inhibitory Concentration
[3] = tested on: A. baumannii-amikacin^s, meropenem^s; details: Gram negative clinical isolate
[4] = tested on: Serratia marcescens; details: Gram negative clinical isolate
[5] = tested on: E. Coli-ESBL positive; details: Gram negative clinical isolate
[6] = tested on: S. aureus MSSA; details: Gram positive clinical isolate
[7] = tested on: A. baumannii-amikacin^r, meropenem^r; details: Gram negative clinical isolate
[8] = tested on: S. aureus MRSA; details: Gram positive clinical isolate
[9] = tested on: Enterobacter aerogenes; details: Gram negative clinical isolate
[10] = tested on: Enterococcus faecalis (clinical isolate); details: Gram positive clinical isolate
[11] = tested on: Enterococcus faecium (clinical isolate); experiment: MIC, broth microdilution; format: cell-based; details: Gram positive clinical isolate
[12] = tested on: HIV-1 IIIB; experiment: microbe, parasite or virus in culture; format: cell-based; details: Table 3; against HIV-1 IIIB virus; read-out: EC50
Procedure: Inhibition of HIV-1 cell replication was tested using the cMAGI assay, which is based on the ability of HIV-1 TAT to transactivate the expression of an integrated β-galactosidase reporter gene driven by the HIV-LTR (B. Chackeria et al., J. Virol., (1997) 71, 3932; Collins et al., Nat. Med. (2000) 6, 475). The β-galactosidase reporter is modified to remain localized in the nucleus where it can be detected with the X-gal (5-bromo-4-chloro-3indoyl-β-D-galactopyranoside) substrate as an intense nuclear stain within a few days of infection.
HIV-1 isolates were propagated by subculture in MT2 cells (Litovchick et al. (2001) supra). Aliquots of cell-free culture supernatants were used as viral inoculum. PAACs were dissolved in the RPMI 1640 medium. Cytotoxicity determinations were carried out in MT2 cells by trypan blue exclusion assay. Viral inhibition was determined by incubating MT2 or cMAGI HIV-1 reporter cells with 0.2-0.5 multiplicity of infection of HIV-1 wild type or resistant virus for 4 days at 37° C. in the presence or absence of various concentrations of pAACs. HIV-1 infection of cMAGI cells was determined by counting the number of HIV-1-infected cells (stained blue). The cytopathic effects of the viral infection of MT2 cells were also analyzed by microscopic assessment of syncytium formation.

[13] = tested on: E. coli U23773^r; details: Gram negative clinical isolate
[14] = tested on: A. baumannii R16998; details: Gram negative clinical isolate
[15] = tested on: S. epidermidis MRSE; details: Gram positive clinical isolate
[16] = tested on: Enterococcus faecalis B84939-vancomycin^r; experiment: MIC, broth microdilution; format: cell-based; details: Gram positive clinical isolate
[17] = tested on: Enterobacter cloacae; details: Gram negative clinical isolate
[18] = tested on: P. aeruginosa-gentamicin^s, meropenem^s; details: Gram negative clinical isolate
[19] = tested on: K. pneumoniae-ESBL negative; details: Gram negative clinical isolate
[20] = tested on: S. epidermidis MSSE; details: Gram positive clinical isolate
[21] = tested on: S. epidermidis B32954; experiment: MIC, broth microdilution; format: cell-based, Staphylococcus epidermidis; details: Gram positive clinical isolate
[22] = tested on: E. Coli-ESBL negative; details: Gram negative clinical isolate
[23] = tested on: Enterobacter cloacae W25161; details: Gram negative clinical isolate
[24] = tested on: P. aeruginosa-gentamicin^r, meropenem^r; details: Gram negative clinical isolate
[25] = read-out: Minimum Inhibitory Concentration

L-Arg-9-mer-neomycin [Compound 8]
Minimum Inhibitory Concentration [1]: 1.5 mg/liter and 0.51 μM
Minimum Inhibitory Concentration [2]: 128.0 mg/L
MIC ([2]; listed as L-Neo-9-mer): 43.83 µM
MIC [2]: 43.83 µM
Minimum Inhibitory Concentration [3]: 6.0 mg/liter and 2.06 μM
Minimum Inhibitory Concentration [4]: 4.0 mg/liter and 1.37 μM
Minimum Inhibitory Concentration [5]: 8.0 mg/liter and 2.74 μM
Minimum Inhibitory Concentration [6]: 4.0 mg/liter and 1.37 μM
Minimum Inhibitory Concentration [7]: 128.0 mg/liter and 43.83 μM
Minimum Inhibitory Concentration ([7]; listed as L-Neo-9-mer): 57.92 µM
Minimum Inhibitory Concentration [8]: 2.0 mg/liter and 0.68 μM
Minimum Inhibitory Concentration [9]: 8.0 mg/liter and 2.74 μM
Minimum Inhibitory Concentration [10]: 256.0 mg/liter and 87.67 μM
Minimum Inhibitory Concentration [11]: 32.0 mg/L
MIC [11, 25]: 10.96 µM
EC50 [12]: 30 ± 7 µM
Minimum Inhibitory Concentration [13]: 96.0 mg/liter and 32.88 μM
Minimum Inhibitory Concentration ([13]; listed as L-Neo-9-mer): 32.88 µM
Minimum Inhibitory Concentration [14]: 128.0 mg/liter and 43.83 μM
Minimum Inhibitory Concentration [15]: 0.5 mg/liter and 0.17 μM
Minimum Inhibitory Concentration [16]: 32.0 mg/L
MIC [16, 25]: 10.96 µM
Minimum Inhibitory Concentration [17]: 8.0 mg/liter and 2.74 μM
Minimum Inhibitory Concentration [18]: 48.0 mg/liter and 16.44 μM
Minimum Inhibitory Concentration [19]: 3.0 mg/liter and 1.03 μM
Minimum Inhibitory Concentration [20]: 0.5 mg/liter and 0.17 μM
Minimum Inhibitory Concentration [21]: 0.5 mg/L
MIC [21, 25]: 0.17 µM
Minimum Inhibitory Concentration [22]: 4.0 mg/liter and 1.37 μM
Minimum Inhibitory Concentration [23]: 8.0 mg/liter and 2.74 μM
Minimum Inhibitory Concentration [24]: 128.0 mg/liter and 43.83 μM
